Measured values from patent publication US20120077744A1, “STEROID-SPARING METHODS OF TREATING BRAIN EDEMA” (Neutron Limited, priority 2007, published 2012).

Key:
[1] = Open-label extension study: serial serum cortisol levels; assay type: in vivo, human; conditions: for AM serum cortisol, one patient: reference range 5-25 μg/dL
Procedure: Serial serum cortisol levels were obtained for 16 patients, and were normal or low in 15 (94%) of the 16 patients. In one patient, AM serum cortisol (reference range 5-25 μg/dL) was low on a dexamethasone dose of 2.5 mg/d, moderately elevated (39 μg/dL) after discontinuation of dexamethasone for 4 weeks, then normalized (25 μg/dL) after 16 weeks off dexamethasone, and again low (0.4 μg/dL) after 8 weeks on dexamethasone at 7.0-8.0 mg/d.

[2] = tested on: patients with primary or secondary brain tumors (peritumoral brain edema); experiment: Open-label extension study: adverse events and safety
Procedure: Eligible patients with primary or secondary brain tumors, who had previously participated in one of two randomized, double-blind Phase III trials, were then enrolled in an open-label extension study. As shown in FIG. 1 patients that participated in the Phase III studies that received XERECEPT (corticorelin acetate) 1 mg twice daily and dexamethasone or placebo and dexamethasone or dexamethasone alone were enrolled in the open label extension study. One of the goals of the open label study was to study the maximum dexamethasone reduction in each patient.
In the open-labeled extension study, patients returned at 4-week intervals and completed assessments that included adverse events, dexamethasone dose, and steroid side-effects. […] Net cumulative change in dexamethasone dose (NCD) for each patient was determined by the change in dexamethasone dose from baseline for each visit. The net sum of these changes accounted for duration, direction, and amount of dexamethasone dose change.

[3] = tested on: patients with primary or secondary brain tumors (peritumoral brain edema); experiment: Open-label extension study: improvement of steroid-related conditions; assay type: in vivo, human
Procedure: In these 8 patients, the mean NCD was −9.8 mg/d; the median NCD was −6.5 mg/d (0 to −36 mg/d).
Mean baseline dexamethasone dose was similar in patients with reduced NCD (6.2 mg) and those with increased NCD (6.3 mg). Improvement or resolution of baseline steroid-related conditions correlated with NCD. Such improvement was observed only in patients whose NCD was reduced or those who took no dexamethasone from baseline to date extraction, as shown in FIG. 3. FIG. 3 is flow chart depicting the net cumulative change in dexamethasone dose and steroid-related adverse events. In contrast, worsening or new onset of steroid-related AEs was confined to patients whose NCD was increased, with one exception—a patient who initiated dexamethasone ≦2 weeks prior to baseline. Improvement was most frequently observed in Cushingoid appearance (5 AEs) myopathy (4 AEs), and insomnia (2 AEs) followed by weight gain, bloating, pedal edema, polyuria, skin striae, and Herpes zoster rash (1 AE each). Median time to initial improvement of steroid-related conditions was 12 weeks (1 to 36 weeks).

[4] = tested on: vascular leakage of plasma constituents; conditions: systemic administration; response to injury or inflammatory mediators; cited from earlier work
[5] = tested on: patients with peritumoral brain edema; conditions: cited from earlier work
[6] = tested on: patients with primary or secondary brain tumors (peritumoral brain edema); conditions: interim report (SNO 2006); 8 of 18 subjects with such conditions at baseline; cited from earlier work
[7] = tested on: intracerebral W256 mammary carcinomas; conditions: rats, even at the study's lowest dose of corticorelin acetate; cited from earlier work
[8] = tested on: RG2 glioma tumor cells; conditions: rats, cited from earlier work
[9] = tested on: patients with primary or secondary brain tumors (peritumoral brain edema); conditions: interim report (SNO 2006); 20 subjects on corticorelin acetate for at least 4 weeks; cited from earlier work
[10] = tested on: patients with primary or secondary brain tumors (peritumoral brain edema); experiment: Open-label extension study: dexamethasone dose reduction (net cumulative change in dexamethasone dose, NCD); assay type: in vivo, human
Description: Eligible patients with primary or secondary brain tumors, who had previously participated in one of two randomized, double-blind Phase III trials, were then enrolled in an open-label extension study. […] One of the goals of the open label study was to study the maximum dexamethasone reduction in each patient.

CC[C@H](C)[C@H](NC(=O)[C@@H](NC(=O)[C@H](CCC(=O)O)NC(=O)[C@H](CCSC)NC(=O)[C@H](CC(C)C)NC(=O)[C@H](CCCCN)NC(=O)[C@H](CCCNC(=N)N)NC(=O)[C@H](CC(N)=O)NC(=O)[C@H](CO)NC(=O)[C@H](Cc1c[nH]cn1)NC(=O)[C@H](C)NC(=O)[C@H](CCC(N)=O)NC(=O)[C@H](CCC(N)=O)NC(=O)[C@H](C)NC(=O)[C@H](CC(C)C)NC(=O)[C@H](CCC(N)=O)NC(=O)[C@H](CCC(=O)O)NC(=O)[C@H](C)NC(=O)[C@H](CCCNC(=N)N)NC(=O)[C@H](C)NC(=O)[C@H](CCSC)NC(=O)[C@H](CCC(=O)O)NC(=O)[C@H](CC(C)C)NC(=O)[C@@H](NC(=O)[C@H](CCC(=O)O)NC(=O)[C@H](CCCNC(=N)N)NC(=O)[C@H](CC(C)C)NC(=O)[C@H](CC(C)C)NC(=O)[C@H](Cc1c[nH]cn1)NC(=O)[C@H](Cc1ccccc1)NC(=O)[C@@H](NC(=O)[C@H](CC(C)C)NC(=O)[C@H](CC(=O)O)NC(=O)[C@H](CC(C)C)NC(=O)[C@H](CO)NC(=O)[C@@H](NC(=O)[C@@H]1CCCN1C(=O)[C@@H]1CCCN1C(=O)[C@H](CCC(=O)O)NC(=O)[C@H](CCC(=O)O)NC(=O)[C@@H](N)CO)[C@@H](C)CC)[C@@H](C)O)C(C)C)[C@@H](C)CC)C(N)=O [corticorelin acetate]
Patients with normal or low serial serum cortisol levels ([1]; 15 of the 16 patients): 94%
AM serum cortisol, one patient ([1]; after 8 weeks on dexamethasone at 7.0-8.0 mg/d, low): 0.4 µg/dL
AM serum cortisol, one patient ([1]; after 16 weeks off dexamethasone, normalized): 25 µg/dL
AM serum cortisol, one patient ([1]; after discontinuation of dexamethasone for 4 weeks, moderately elevated): 39 µg/dL
Induction of hypercortisolism ([1]; dosing up to 48 weeks): did not induce hypercortisolism
Deaths: relation to study drug ([2]; four patients died between 1-40 days after the last dose): all because of conditions not related to study drug
All adverse events, Mild ([2]; in vivo): 3 (15.0) n (%)
All adverse events, Moderate ([2]; in vivo): 3 (15.0) n (%)
All adverse events, Severe ([2]; in vivo): 1 (5.0) n (%)
All adverse events, all severities (last column, no head) ([2]; in vivo): 7 (35.0) n (%)
Eyelid edema, Mild ([2]; in vivo): 1 (5.0) n (%)
Eyelid edema, all severities (last column, no head) ([2]; in vivo): 1 (5.0) n (%)
Flushing, Mild ([2]; in vivo): 3 (15.0) n (%)
Flushing, Moderate ([2]; in vivo): 2 (10.0) n (%)
Flushing, all severities (last column, no head) ([2]; in vivo): 5 (25.0) n (%)
Headache, Severe ([2]; in vivo): 1 (5.0) n (%)
Headache, all severities (last column, no head) ([2]; in vivo): 1 (5.0) n (%)
Injection site erythema, Mild ([2]; in vivo): 4 (20.0) n (%)
Injection site erythema, Moderate ([2]; in vivo): 1 (5.0) n (%)
Injection site erythema, all severities (last column, no head) ([2]; in vivo): 5 (25.0) n (%)
Injection site reaction, Mild ([2]; in vivo): 2 (10.0) n (%)
Injection site reaction, Moderate ([2]; in vivo): 1 (5.0) n (%)
Injection site reaction, all severities (last column, no head) ([2]; in vivo): 3 (15.0) n (%)
Nausea, Moderate ([2]; in vivo): 1 (5.0) n (%)
Nausea, all severities (last column, no head) ([2]; in vivo): 1 (5.0) n (%)
Number of SAEs ([2]; in vivo): 12 SAEs
Photophobia, Moderate ([2]; in vivo): 1 (5.0) n (%)
Photophobia, all severities (last column, no head) ([2]; in vivo): 1 (5.0) n (%)
SAEs attributed to corticorelin acetate ([2]; in vivo): none of which were attributed to corticorelin acetate
Safety and tolerability of long-term treatment ([2]; in vivo): safe and well-tolerated
Patients with improvement or resolution of steroid-related conditions ([3]; 8 of the 18 patients with such conditions at baseline, 17 conditions): 45%
Mean NCD ([3]; 8 patients with improvement or resolution of steroid-related conditions): -9.8 mg/day
Median NCD ([3]; 8 patients with improvement or resolution of steroid-related conditions, range 0 to −36 mg/d): -6.5 mg/day
Median time to initial improvement of steroid-related conditions ([3]; range 1 to 36 weeks): 12 weeks
Improvement observed in Cushingoid appearance ([3]; steroid-related conditions): 5 AEs
Improvement observed in insomnia ([3]; steroid-related conditions): 2 AEs
Improvement observed in myopathy ([3]; steroid-related conditions): 4 AEs
Improvement observed in weight gain, bloating, pedal edema, polyuria, skin striae, and Herpes zoster rash ([3]; steroid-related conditions): 1 AE each
Effect on vascular leakage and tissue swelling [4]: inhibit vascular leakage of plasma constituents and associated tissue swelling
Side-effects of intravenous administration ([5]; human, in vivo, iv): some side-effects including headache, hypotension, facial flushing, diarrhea, shortness of breath, nausea and lethargy
Tolerability in humans ([5]; human, in vivo, iv): well-tolerated
Neurological symptoms or physical findings ([5]; intravenous bolus and continuous infusions): showed improvement in neurological symptoms or physical findings
Subjects with improvement or resolution of steroid related conditions [6]: 45%
Effect on the anti-edematous effect of dexamethasone [7]: enhance substantially the anti-edematous effect of dexamethasone
Survival versus dexamethasone alone ([8]; administered chronically): significantly prolonged survival
Effect on tumoral and peritumoral edema ([8]; intravenous infusion): reduce tumoral and peritumoral edema
Subjects who reduced their dexamethasone dosage during the study [9]: 11 subjects
Subjects who took no concomitant dexamethasone [9]: 2 subjects
Typically refractory patients who successfully reduced dexamethasone ([10]; 5 of the 8 patients 55 years of age): 62.5%
Typically refractory patients who successfully reduced dexamethasone ([10]; 7 of the 10 patients with recurrent brain tumor): 70%
Patients with increased NCD ([10]; 7 of the 20 patients): 35%
Mean NCD ([10]; 7 patients whose NCD was increased): +10.7 mg/d
Median NCD ([10]; 7 patients whose NCD was increased, range +2.0 mg/d to +46.0 mg/d): +5.0 mg/d
Median maximum percent change from baseline in dexamethasone dose ([10]; 7 patients with increased NCD, range +50 to +200%): +100%
Typically refractory patients who successfully reduced dexamethasone ([10]; 11 of the 16 patients in whom prior dexamethasone reductions had been unsuccessful): 69%
Patients with reduced NCD ([10]; 11 of the 20 patients): 55%
Mean NCD ([10]; 11 patients whose NCD was reduced): -10.7 mg/day
Median NCD ([10]; 11 patients whose NCD was reduced, range −0.5 to −36 mg/d): -3.0 mg/day
Median maximum percent change from baseline in dexamethasone dose ([10]; 11 patients with reduced NCD, range −11 to −100%): −87%
Patients discontinuing dexamethasone altogether ([10]; of the 11 patients with reduced NCD): 5 patients
Exposure to dexamethasone and steroid-related side-effects ([10]; patients with peritumoral brain edema): associated with reduced exposure to dexamethasone and improvement in steroid-related side-effects
Patients who took 0.0 mg/d dexamethasone from baseline to ≧24 weeks ([10]; two of 20 patients): 10%
